Results on one compound are retold here after US8999983B2, “Modulators of Hec1 activity and methods therefor” (Taivex Therapeutics Corporation, priority 2011, dated 2015).

In one series the test system is MDA-MB-231. As to the kind of experiment: Antiproliferation assay (MTS), MDA-MB-231 cells. The settings on record: Homo sapiens, MDA-MB-231, 96 h, read-out: Antiproliferative IC50 MDA-MB-231, Table 1. The format is cell-based. A digest of the protocol: (§1)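 Cells seeded after overnight attachment were treated in triplicate for 96 h at 37 °C, 5% CO2, final DMSO below 1%. Viability read by MTS absorbance; concentration-response curves fitted by linear regression against DMSO controls.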

Series [1] is described as follows: Body weight in mouse xenograft studies. The format is in vivo, nude mice. The method, then: Mouse Xenograft Studies: Xenograft studies adapted from a previous published protocol (Wu et al, Cancer Res. 2008 Oct. 15; 68(20):8393-9). Female BALB/c nude (nu/nu) mice (5-8 weeks) were obtained from Lasco (Industrial Park, Tai-Ping Area, Taichung City, Taiwan). The animals were maintained under specific pathogen-free conditions, and food and water were supplied ad libitum. Housing and all procedures involving animals were performed according to protocols approved by the IACUC in DCB. Nude mice were inoculated with 17-β-estradiol pellets 72 to 96 h before implantation of BT-474 cells. For subcutaneous implantation of BT-474 cells, cells (1×10^7 in matrix gel/animal) were injected subcutaneously into the right subaxillary region. Treatment started when average tumor volume reached about 200 mm^3; mice were treated (p.o., QD/28 cycles in total) with vehicle A (0.5% methylcellulose), or candidate compounds formulated in vehicle A (10-50 mg/kg body weight). Perpendicular diameter measurement of each tumor were made with digital calipers and the volume of the tumor calculated using formula (L×W×W)/2, in which L and W represent the length and the width, respectively. Body weights were measured three times weekly.
The in vivo effectiveness of contemplated compounds in the reduction of tumor volume in nude mice is readily apparent.
Development of resistance to treatment in advanced stage tumors is a well known phenomenon. Activity of select Hec1 inhibitor in such late stage tumors was determined by re-dosing of BT474 xenografted animals that had previously subjected to 35 days of treatment with 110095 (compound 27 of Table 1). Re-treatment with 110095 was starting on day 42 and continued for 21 days.

Another series deals with HeLa cell. The series can be described thus: Immunostaining and microscopy, metaphase chromosomal misalignment. The series is classed as cell-based. Conditions: compared to control (DMSO).
A further series has as its system Caco-2 cell monolayers. As to the kind of experiment: Caco-2 cell permeability. The format is in vitro ADME. The settings on record: 2 hour. The procedure: Here, Caco-2 cell line (cat. HTB-37TM) was purchased from the ATCC. Cells were cultivated in T-75 flasks in a cell culture incubator set at 37° C., 5% CO2, 95% relative humidity. Cells were allowed to grow to reach 80-90% confluence before seeding. […] The cells were grown in culture medium consisting of Dulbecco's modified Eagle's medium supplemented with 10% fetal bovine serum, 100 U/mL penicillin and 100 μg/mL streptomycin. The culture medium was replaced every 2 days and the cells were maintained at 37° C., 95% relative humidity and 5% CO2.
For a quality integrity control of the monolayers of seeded cells, the Lucifer yellow (LY) transport experiment was performed to evaluate monolayer integrity. As for a quality control of each filter, the transepithelial electrical resistance (TEER) was measured before the start of and at the end of transport experiments. Physiologically and morphologically well developed Caco-2 cell monolayers with TEER values greater than 400 Ωcm^2 were used for the studies.
The solution volumes in apical and basolateral chambers were set to 0.4 and 0.6 ml respectively. Samples were taken from both the apical and basolateral compartment at the end of the 2 hour incubation at 37° C. […] The excitation and emission wavelengths were 490 nm and 530 nm, respectively.

Series [2] has as its system caspase-3, PARP, Mcl-1 and XIAP. As to the kind of experiment: Immunoblot of apoptotic pathway proteins. The format is cell-based. The settings on record: 1 μM, 24 or 48 hours. The procedure: Immunoblot Analysis: For immunoblotting experiments, cells were plated in a 6-well culture plate and cultured overnight. Cells were incubated with the test compounds for the indicated time and whole cell lysate was harvested by adding 1×SDS-PAGE Sample Buffer (62.5 mM Tris-HCl (pH 6.8 at 25° C.), 2% w/v SDS, 10% glycerol, 50 mM DTT, and 0.01% w/v bromophenol blue or phenol red). Proteins were separated by SDS-PAGE electrophoresis and transferred to PVDF membrane. Protein expression was immunoblotted using various primary antibodies and detected using Immobilon Western Chemiluminescent HRP Substrate (Millipore, Billerica Mass. 01821 USA). Antibodies used include anti-Cleaved Caspase3, (Rabbit, Cell Signaling Technology, Danvers Mass. 01923 USA); anti-PARP (Rabbit, Cell Signaling Technology, Danvers Mass. 01923 USA); anti-MCL-1 (mouse, BD Biosciences, San Jose Calif. 95131 USA); anti-XIAP (rabbit, Cell Signaling Technology, Danvers Mass. 01923 USA); anti-Bcl-2 (mouse, Santa Cruz Biotechnology, Santa Cruz Calif. 95060); anti-Cyclin BI (mouse, BD Biosciences, San Jose Calif. 95131 USA); anti-Cyclin D1 (mouse, Santa Cruz Biotechnology, Santa Cruz Calif. 95060); Anti-Nek2 (mouse, BD Biosciences, San Jose Calif. 95131 USA); Anti-HEC1, (rabbit, GeneTex, Inc., Irvine Calif. 92606 USA); and anti-actin (mouse, Millipore, Billerica Mass. 01821 USA).
100 nM Taxol was used as a positive control drug for apoptosis.
In general terms: A western blot detects proteins with antibodies after separation by electrophoresis.

The test system of the next series is cancer cells. The series can be described thus: DNA content analysis (propidium iodide, FACS). The format is cell-based. The method, then: DNA Content Analysis: Cells were plated in a 10-cm culture plate and cultured overnight. Cells were incubated with the compound for the indicated time and collected at the indicated time points. Cells were fixed with 70% ethanol overnight, stained with propidium iodide solution (1.25 mg/ml propidium iodide (Sigma) and 20 μl/ml […] in PBS) and subjected to fluorescence activated cell sorting (FACS). The results were analyzed by Cell Quest software (BD Biosciences, San Jose Calif. 95131 USA).

The test system of another series is MDA-MB-231 xenograft. The series can be described thus: Mouse xenograft study, MDA-MB-231 breast cancer. The format is in vivo. Conditions: MDA-MB-231 breast cancer xenograft, nude mice.
The next series deals with K562. The series can be described thus: Antiproliferation assay (MTS), K562 cells. The format is cell-based. The settings on record: Homo sapiens, K562, 96 h, Table 1, read-out: Antiproliferative IC50 K562. In a few lines: as §1

Method for HeLa cell: Immunostaining and Microscopy: Cells were grown on polylysine-coated coverslips. Cells were gently washed with BRB80 buffer (80 mM piperazine-N,N′-bis(2-ethanesulfonic acid) (PIPES) pH 6.8, 5 mM EGTA, 1 mM MgCl2) before fixation with cold 100% methanol or 4% paraformaldehyde in BRB80 or phosphate-buffered saline (PBS). Following permeabilization with 0.4% Triton X-100, cells were blocked with 2% bovine serum albumin (BSA) in PBS and then incubated with anti-α-Tubulin antibodies (mouse, FITC Conjugate; Sigma Aldrich, St. Louis Mo. USA) diluted in 2% BSA in PBS. DAPI (4′,6′-diamidino-2-phenylindole) staining was applied after secondary antibody incubation, and cells were mounted on cover slides with Prolong gold antifade reagent (Life Technologies, Carlsbad Calif. USA 92008). Images were captured with a Zeiss Axioplan 2 microscope equipped with a deconvolution module or with a Zeiss LSM-510 META laser scanning confocal microscope (Carl Zeiss Microscopy, Thomwood N.Y. 10594 USA).
After fixation, cells are stained with anti-tubulin antibody and DAPI to stain for microtubules and DNA, respectively, and imaged. […] Fluorescent images were taken of the cells and the percentage of cells with metaphase misalignment were counted and recorded.

By IC50 is commonly meant the concentration needed to halve the response being measured. On to `COCCOc1cnc(Sc2cc(C)c(-c3csc(NC(=O)c4ccncc4)n3)c(C)c2)cn1` [Compound 27, N-(4-{4-(5-(2-methoxyethoxy)pyrazin-2-ylthio)-2,6-dimethylphenyl}thiazol-2-yl)isonicotinamide], for which the IC50 stood at 35.1 nM in the series with MDA-MB-231 and 18 nM with K562. For the same compound, the body weight result in series [1] (re-treatment of late stage xenografts) is listed as “body weight remained constant”; in series [1] (xenograft studies FIG. 7A-7D, nude mice) it was “body weight remained constant”. In addition, the “number of cells with metaphase misalignment” value in the series on HeLa cell is reported as “time-dependent increase in the number of cells with metaphase misalignment”. Further, in the series with Caco-2 cell monolayers (10 μM, both directions), the Caco-2 permeability result is “moderate Caco-2 permeability”. In addition, the active efflux result with Caco-2 cell monolayers (Caco-2, 10 μM) is on record as “no indication of significant active efflux”. In addition, in series [2], the “levels of apoptotic (caspase-3, PARP) and anti-apoptotic (Mcl-1, XIAP) proteins” value is “cleavage of the apoptotic proteins accompanied by down-regulation of the anti-apoptotic proteins”. Moreover, in the series with cancer cells, the “sub-G1 population (apoptotic cells)” value is on record as “increase in the sub-G1 population”. In addition, the xenograft tumor outgrowth entry in the series with MDA-MB-231 xenograft is on record as “inhibition of xenograft tumor outgrowth”.
